The test system of assay [1] is HT-1080 (fibrosarcoma) cells. As to the kind of experiment: Primary screening by ferroptosis assay (Erastin-induced, cell viability, CellTiter-Glo). The class given is cell-based. To be noted: Homo sapiens, HT-1080, 30 h, HT-1080 cells, % remaining activity, read-out: EC50, Inhibition for Ferroptosis in HT-1080 Cell. In outline:
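HT-1080 cells seeded overnight, then treated in triplicate with 12-point 2-fold compound dilutions prepared in medium containing 400 μM Erastin (stock before transfer). Viability read by CellTiter-Glo luminescence after 30 h. % remaining activity normalised to vehicle and Erastin-only background; EC50 from non-linear regression.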

The next assay relates to 3T3-L1 cells. The assay can be described thus: Apoptosis assay (Caspase-Glo 3/7, Actinomycin D induced). The class given is cell-based. Particulars: Mus musculus, 3T3-L1; 100 nM Actinomycin D, 48 hours, Caspase-Glo 3/7, 2 hours pre-treatment; read-out: EC50, Inhibition for Apoptosis in 3T3-L1 Cell induced by Actinomycin D. Here is the method:
Cell Lines and Media. 3T3-L1 cells were obtained from American Type Culture Collection. Cells were grown in DMEM completed media, 10% FBS, and penicillin-streptomycin mix (Invitrogen). Cells were maintained at 37° C. and 5% CO2 in a tissue culture incubator.
Apoptosis Assay. […] We used this assay to screen our compounds for apoptosis inhibition. Briefly, 40 μL of 3000 3T3-L1 cells were seeded per well in 384 well plates, cells were allowed to adhere overnight. In the next day, prepare the Actinomycin D as the apoptosis inducing agent into 100 μM DMSO stock. Prepare the test compounds into 10 mM DMSO stock. Serial dilute the compound into 10 points by 3-fold dilution with DMSO. Pre-treat the 3T3-L1 cells with test compound by transfer 40 nL of stock of serial concentration in triplicate wells using acoustic fluid transfer, incubate for 2 hours. Then transfer 40 nL of 100 μM of Actinomycin D (final concentration is 100 nM) into designated wells using acoustic fluid transfer. Incubate the assay plates at 37° C., 5% CO2, 95% humidity incubator for 48 hours. For caspase assay, add 20 μL/well of Caspase-Glo>3/7 reagent (Promega) into test wells. Incubate for 30 minutes at room temperature to stabilize the luminescence signal. Read the plate with EnSpire Multimode Plate Reader (PerkinElmer). Calculate the EC50 value using formula equation 201: y−(A+((B−A)/(1+((x/C)^D)))) from the XLFit (Excel add-in software), where
A: Average mean of vehicle samples
B: Average mean of cells treated with 100 nM AcD
Z′ factor was used to describe the screening assay perfonuance. The Z′ factor value was >0.5 in all the test plates which indicated the assay was qualified and the IC50 value was reliable for all tested compounds.

Turning to `COC(=O)[C@H](CCCNC(=O)OC1CC(C)(C)N(O)C(C)(C)C1)NC(=O)[C@@H](NC(=O)[C@@H]1CCCN1C(=O)[C@H](/C=C/[C@H](CC(C)C)NC(=O)OC(C)(C)C)Cc1ccccc1)C(C)C` [Example XXXVIII, (S)—Methyl 2-((S)-2-((S)-1-((2S,5S,E)-2-benzyl-5-((tert-butoxycarbonyl)amino)-7-methyloct-3-enoyl)pyrrolidine-2-carboxamido)-3-methylbutanamido)—5-((((1-oxyl-2,2,6,6-tetramethylpiperidin-4-yl)oxy)carbonyl)amino)pentanoate], the EC50 turned out to be 0.076 µM in assay [1] and 2.65 µM in the assay on 3T3-L1 cells.
Taken in the same sequence, the figures for `CC(C)C[C@@H](/C=C/[C@H](Cc1ccccc1)C(=O)N1CCC[C@H]1C(=O)N[C@@H](CCCNC(=O)OC1CC(C)(C)N(O)C(C)(C)C1)C(=O)NC(C)C)NC(=O)OC(C)(C)C` [Example XXXXIV, tert-Butyl N-[(4S,5E,7S)-7-benzyl-8-[(2S)—2-{[(1S)-4-({[(1-oxyl-2,2,6,6-tetramethylpiperidin-4-yl)oxy]carbonyl}amino)-1-[(propan-2-yl)carbamoyl]butyl]carbamoyl}pyrrolidin-1-yl]-2-methyl-8-oxooct-5-en-4-yl]carbamate] were 0.14 µM and 0.628 µM.

The values above are taken from US10889572B2, “Reactive oxygen species scavengers and use for treating diseases” (XW LABORATORIES INC., priority 2017, dated 2021).
